Results reported in patent publication US20090305994A1, “Compounds Modulating Vegf Receptor and Uses Thereof” (priority 2005, published 2009).
No end group written: not given here.

What was measured:
ERK1/2 = ERK1/2 activation in BAEC (western blot); assay type: cell-based, bovine; conditions: serum deprived BAEC, 15 minutes at 37° C.
Procedure: Effect of QK and VEGF15 on ERK1/2 activation. Serum deprived BAEC were treated with QK (a) or with VEGF 15 (b) in absence or in presence of VEGF165 (100 ng/ml) for 15 minutes at 37° C. and then dissolved in RIPA-SDS buffer. Total ERK1/2 and the phosphorylated form of ERK1/2 were visualized by specific antibodies.
Western blot. Cells were plated on six-well dishes and serum starved overnight. On the next day, cells were treated with different amount of peptide in absence or in presence of VEGF165 for 15 minutes at 37° C. and then dissolved in RIPA-SDS buffer (50 mM Tris-HCl (pH 7.5), 150 mM NaCl, 1% NP-40, 0.25% deoxycholate, 9.4 mg/50 ml sodium orthovanadate, […]). In some experiments, total KDR and Flt-1 were immunoprecipitated from an equal amount of whole-cell protein extracts using protein A/G agarose beads conjugated with antibodies raised against total KDR or Flt-1 (R&D). Proteins from whole-cell extracts or immunocomplexes were resolved by PAGE and transferred to nitrocellulose. Total extracellular signal-regulated kinase 1 and 2 (ERK1/2), serine-tyrosin phosphorylated ERK1/2, phospho-tyrosine (Cell signaling) and phospho-RB (p-RB) (Santacruz) were visualized by specific antibodies, anti-rabbit HRP-conjugated secondary antibody (Santacruz) and standard chemiluminescence (Pierce).
Activation of the proliferative intracellular pathways. We then explored whether QK is able to start the pathways of endothelial cell activation. It is well established that angiogenesis modulate by VEGF is largely ERK1/2 dependent, leading to DNA synthesis and cell proliferation (7). Accordingly, we assessed the effects of QK on this kinase. […] To verify whether ERK1/2 activation to QK results in cell proliferation, we studied cell proliferation indicators such as cell number, DNA synthesis and cyclin activation.

VEGF receptors = VEGF receptors binding assay ([125I]-VEGF competition on BAEC membranes); parameters: species or system bovine
Procedure: VEGF receptors binding and activation. a) VEGF competitive binding on BAEC. 1 μg of membrane protein was plated with QK and [^125I]-VEGF (500000 cpm, 10^−10 M). b) KDR activation. After stimulation total KDR was immunoprecipitated from a whole-cell protein extracts and phospho-tyrosine was visualized by a specific antibody, anti-rabbit HRP-conjugated secondary antibody and standard chemiluminescence. c) Flt-1 activation. After stimulation total Flt-1 was immunoprecipitated from a whole-cell protein extracts and phospho-tyrosine was visualized by specific antibody, anti-rabbit HRP-conjugated secondary antibody and standard chemiluminescence.
VEGF receptors binding assay. Cells were homogenized in lysis buffer (12.5 mM Tris pH 6.8, 5 mM EDTA, 5 mM EGTA) and membranes were separated from the cytosol fraction by centrifugation. Membranes were suspended in binding buffer (75 mM Tris, 12.5 mM MgCl2, 2 mM EDTA) and an equal amount of membrane protein (1 μg) was plated in 96 well plates with QK (10^−13 to 10^−8 M) and [^125I]-VEGF (Amersham). VEGF binding was evaluated with a y-counter.
VEGF receptors binding assay. To verify the biological behavior of QK peptide, we tested its ability to compete for the binding sites of VEGF on cell membranes (FIG. 1a). We competed membranes, obtained from isolated BAEC, with iodinated VEGF and then with increasing amount of QK.

WKY rats = assay: Ischemic hindlimb model, digital angiographies and blood flow determination; assay type: in vivo, rat; conditions: 14 days

- binding to the VEGF receptor (VEGF receptors): does not bind to the receptor
Sequence: KVKFMDVYQRSYCHP (KVKFMDVYQRSYCHP-NH2) [VEGF15, natural peptide reproducing the VEGF helix 17-25, used as control peptide]
- ERK1/2 activation (ERK1/2): had no effect on ERK activation
- BEADS Ischemic to non ischemic (WKY rats; dyed beads dilution, muscle ratio, infusion 10^-7 M): 0.59 ± 0.15
- ANGIOGRAPHY Number of TFC (WKY rats; ischemic hindlimb, chronic intrafemoral artery infusion 10^-7 M): 38 ± 2
